Measured values from patent US11066436B2, “5′-phosphorothiolate mRNA 5′-end (cap) analogs, mRNA comprising the same, method of obtaining and uses thereof” (Uniwersytet Warszawski, priority 2016, dated 2021).
Entries after “also recorded” stand apart in the source; their conditions may differ.

Tests used:
[1] = biological target: T1, human DcpS enzyme (hDcpS) (Homo sapiens, UniProt Q96C86); test: Susceptibility of cap analogs to degradation by DcpS enzyme (RP-HPLC); assay type: biochemical; conditions: for DcpS susceptibility: cap analog 20 μM, hDcpS 100 nM, RP-HPLC; for hydrolysis by hDcpS: tested as substrates of hDcpS, RP HPLC
T1 construct: made in house
T1 sequence (Q96C86 1-337): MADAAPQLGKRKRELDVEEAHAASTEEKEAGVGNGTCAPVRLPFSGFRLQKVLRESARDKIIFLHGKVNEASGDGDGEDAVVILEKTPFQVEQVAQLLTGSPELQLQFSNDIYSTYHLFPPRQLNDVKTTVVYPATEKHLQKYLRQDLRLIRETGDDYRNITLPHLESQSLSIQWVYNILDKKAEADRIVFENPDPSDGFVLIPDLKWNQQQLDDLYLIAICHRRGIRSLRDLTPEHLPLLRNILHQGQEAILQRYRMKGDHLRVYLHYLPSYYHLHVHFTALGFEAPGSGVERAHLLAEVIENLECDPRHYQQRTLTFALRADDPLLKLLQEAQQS
Procedure: Test 1. The Susceptibility Study of Analogs to Degradation by DcpS Enzyme.
The aim of the test was to check if new 5′-thiophosphate cap analogs are hydrolyzed by human DcpS enzyme (hDcpS). Recombinant human protein encoding DcpS enzyme was expressed as described previously (Kowalska, Lewdorowicz et al. 2008). The susceptibility of new analogs to hDcpS hydrolysis is tested in 50 mM Tris-HCl buffer containing 200 mM KCl and 0.5 mM EDTA. Reaction mixture includes the tested cap analog (20 μM) and hDcpS enzyme (100 nM) in 400 μl of buffer. At the appropriate intervals 100 μl sample is collected from the reaction mixture. Sample is incubated at 98° C. for 2.5 min, and then cooled to 0° C. and analyzed on RP-HPLC under conditions described in general informations. In tests also commercially available inhibitor of DcpS was tested, the compound RG3039 (no. 000) (https://www.mda.org/quest/fda-approves-phase-1-clinical-trial-rg3039-sma), GppSG (no. 19), GpppSG (no. 20), as well m^7GpppG (no. 0) and m^7Gpp (no. 00) as controls. Exemplary results obtained are shown on FIG. 5 and Table 5.

hDcpS enzyme = biological target: T2, hDcpS enzyme (Homo sapiens, UniProt Q96C86); test: IC50 determination for selected inhibitors of DcpS (fluorescence, m^7GMPF probe); assay type: biochemical; conditions: for IC50: m^7GMPF 60 μM, hDcpS 50 nM, tested compound 0-50 μM
T2 construct: made in house
T2 sequence (Q96C86 1-337): T1 sequence (Q96C86 1-337)
Procedure: Test 2. IC50 Determination for Selected Inhibitors
The buffer in this test and in the test 1 is the same. Ten mixture reactions were prepared at the same time and each of them contained a m^7GMPF (60 μM), hDcpS enzyme (50 nM) and the tested compound in concentration range between 0-50 μM in 200 μl of buffer. After appropriate time, when 30% of substrate were converted into product without inhibitor, the reaction was stopped by mixing with 100 μl of ACN. Samples of 25 μl were taken for analysis, followed by mixing with 90 μl of TBDS-fluorescein solution of concentration 2.5 μM in DMSO and incubated for 60 min. Next, 100 μl of 200 mM HEPES buffer pH=7.0 was added to the samples and the fluorescence was measured as described in general information. Based on the results, dependence of inhibitor concentration vs. fluorescence were plotted and the IC50 values were determined by fitting theoretical curve to data.

C[n+]1cn([C@@H]2O[C@H](CSP(=O)(O)OP(=O)([S-])OP(=O)(O)SC[C@H]3O[C@@H](n4cnc5c(=O)[nH]c(N)nc54)C(O)C3O)C(O)C2O)c2nc(N)nc(O)c21 (single isomer, unassigned) [compound 33]
DcpS susceptibility [1]: resistant/inhibitor
hydrolysis by hDcpS [1]: stability in the presence of DcpS enzyme
IC50 (hDcpS enzyme): 260 ± 40 nM

C[n+]1cn([C@@H]2O[C@H](CSP(=O)(O)OP(=O)([S-])OP(=O)(O)SC[C@H]3O[C@@H](n4cnc5c(=O)[nH]c(N)nc54)C(O)C3O)C(O)C2O)c2nc(N)nc(O)c21 (single isomer, unassigned) [compound 34]
DcpS susceptibility [1]: resistant/inhibitor
hydrolysis by hDcpS [1]: stability in the presence of DcpS enzyme
inhibition of hDcpS (hDcpS enzyme; fluorescence method and fluorogenic probe): best inhibitory properties
IC50 (hDcpS enzyme): 51 ± 8 nM

C[n+]1cn([C@@H]2O[C@H](COP(=O)(O)OP(=O)([O-])SC[C@H]3O[C@@H](n4cnc5c(=O)[nH]c(N)nc54)C(O)C3O)C(O)C2O)c2nc(N)nc(O)c21 (stereo in doubt) [compound 21]
DcpS susceptibility [1]: hydrolyzable
hydrolysis by hDcpS [1]: hydrolyzed

C[n+]1cn([C@@H]2O[C@H](CSP(=O)([O-])OP(=O)(O)OC[C@H]3O[C@@H](n4cnc5c(=O)[nH]c(N)nc54)C(O)C3O)C(O)C2O)c2nc(N)nc(O)c21 (stereo in doubt) [compound 23]
DcpS susceptibility [1]: resistant/inhibitor
hydrolysis by hDcpS [1]: stability in the presence of DcpS enzyme
IC50 (hDcpS enzyme): 2810 ± 510 nM

C[n+]1cn([C@@H]2O[C@H](COP(=O)(O)OP(=O)(O)O)[C@@H](O)[C@H]2O)c2nc(N)nc([O-])c21 [compound 00]
DcpS susceptibility [1]: resistant/inhibitor
IC50 (hDcpS enzyme): 4300 ± 780 nM

C[n+]1cn([C@@H]2O[C@H](CSP(=O)([O-])OP(=O)(O)O)C(O)[C@@H]2O)c2nc(N)nc(O)c21 (stereo partly drawn) [compound 12]
DcpS susceptibility [1]: resistant/inhibitor
hydrolysis by hDcpS [1]: stability in the presence of DcpS enzyme
IC50 (hDcpS enzyme): 1930 ± 380 nM

Nc1nc2c(ncn2[C@@H]2O[C@H](COP(=O)(O)OP(=O)(O)SC[C@H]3O[C@@H](n4cnc5c(=O)[nH]c(N)nc54)[C@H](O)[C@@H]3O)[C@@H](O)[C@H]2O)c(=O)[nH]1 [compound 19]
DcpS susceptibility [1]: hydrolyzable
IC50 (hDcpS enzyme): > 100000 nM

Nc1nc2c(ncn2[C@@H]2O[C@H](COP(=O)(O)OP(=O)(O)OP(=O)(O)SC[C@H]3O[C@@H](n4cnc5c(=O)[nH]c(N)nc54)[C@H](O)[C@@H]3O)[C@@H](O)[C@H]2O)c(=O)[nH]1 [compound 20]
DcpS susceptibility [1]: hydrolyzable
IC50 (hDcpS enzyme): > 100000 nM

C[n+]1cn([C@@H]2O[C@H](COP(=O)(O)OP(=O)(O)OP(=O)([O-])SC[C@H]3O[C@@H](n4cnc5c(=O)[nH]c(N)nc54)C(O)C3O)C(O)C2O)c2nc(N)nc(O)c21 (stereo partly drawn) [compound 22]
DcpS susceptibility [1]: hydrolyzable
hydrolysis by hDcpS [1]: hydrolyzed

C[n+]1cn([C@@H]2O[C@H](CSP(=O)([O-])OP(=O)(O)OP(=O)(O)OC[C@H]3O[C@@H](n4cnc5c(=O)[nH]c(N)nc54)C(O)C3O)C(O)C2O)c2nc(N)nc(O)c21 (stereo partly drawn) [compound 24]
DcpS susceptibility [1]: resistant/inhibitor
hydrolysis by hDcpS [1]: resistant; also recorded: stability in the presence of DcpS enzyme
IC50 (hDcpS enzyme): 840 ± 70 nM

C[n+]1cn([C@@H]2O[C@H](CSP(=O)([O-])OP(=O)(O)CP(=O)(O)OC[C@H]3O[C@@H](n4cnc5c(=O)[nH]c(N)nc54)C(O)C3O)C(O)C2O)c2nc(N)nc(O)c21 (stereo partly drawn) [compound 25]
DcpS susceptibility [1]: resistant/inhibitor
hydrolysis by hDcpS [1]: stability in the presence of DcpS enzyme
IC50 (hDcpS enzyme): 6250 ± 1220 nM

COC1C(O)[C@@H](CSP(=O)([O-])OP(=O)(O)OP(=O)(O)OC[C@H]2O[C@@H](n3cnc4c(=O)[nH]c(N)nc43)C(O)C2O)O[C@H]1n1c[n+](C)c2c(O)nc(N)nc21 (stereo partly drawn) [compound 26]
DcpS susceptibility [1]: resistant/inhibitor
hydrolysis by hDcpS [1]: stability in the presence of DcpS enzyme
IC50 (hDcpS enzyme): 12600 ± 5220 nM

C[n+]1cn([C@@H]2O[C@H](CSP(=O)(O)OP(=O)([S-])OP(=O)(O)OC[C@H]3O[C@@H](n4cnc5c(=O)[nH]c(N)nc54)C(O)C3O)C(O)C2O)c2nc(N)nc(O)c21 (stereo partly drawn) [compound 30]
DcpS susceptibility [1]: resistant/inhibitor
hydrolysis by hDcpS [1]: stability in the presence of DcpS enzyme
IC50 (hDcpS enzyme): 230 ± 40 nM

C[n+]1cn([C@@H]2O[C@H](CSP(=O)(O)OP(=O)([S-])OP(=O)(O)OC[C@H]3O[C@@H](n4cnc5c(=O)[nH]c(N)nc54)C(O)C3O)C(O)C2O)c2nc(N)nc(O)c21 (stereo partly drawn) [compound 31]
DcpS susceptibility [1]: resistant/inhibitor
hydrolysis by hDcpS [1]: stability in the presence of DcpS enzyme
IC50 (hDcpS enzyme): 170 ± 20 nM

C[n+]1cn([C@@H]2O[C@H](CSP(=O)([O-])OP(=O)(O)OP(=O)(O)SC[C@H]3O[C@@H](n4cnc5c(=O)[nH]c(N)nc54)C(O)C3O)C(O)C2O)c2nc(N)nc(O)c21 (stereo partly drawn) [compound 32]
DcpS susceptibility [1]: resistant/inhibitor
hydrolysis by hDcpS [1]: stability in the presence of DcpS enzyme
IC50 (hDcpS enzyme): 330 ± 90 nM

C[n+]1cn([C@@H]2O[C@H](COP(=O)(O)OP(=O)([S-])OP(=O)(O)SC[C@H]3O[C@@H](n4cnc5c(=O)[nH]c(N)nc54)C(O)C3O)C(O)C2O)c2nc(N)nc(O)c21 (stereo partly drawn) [compound 35]
DcpS susceptibility [1]: hydrolyzable
hydrolysis by hDcpS [1]: hydrolyzed

C[n+]1cn([C@@H]2O[C@H](COP(=O)(O)OP(=O)([S-])OP(=O)(O)SC[C@H]3O[C@@H](n4cnc5c(=O)[nH]c(N)nc54)C(O)C3O)C(O)C2O)c2nc(N)nc(O)c21 (stereo partly drawn) [compound 36]
DcpS susceptibility [1]: hydrolyzable
hydrolysis by hDcpS [1]: hydrolyzed

C[n+]1cn([C@@H]2O[C@H](COP(=O)(O)CP(=O)(O)OP(=O)([O-])SC[C@H]3O[C@@H](n4cnc5c(=O)[nH]c(N)nc54)C(O)C3O)C(O)C2O)c2nc(N)nc(O)c21 (stereo partly drawn) [compound 37]
DcpS susceptibility [1]: resistant/inhibitor
hydrolysis by hDcpS [1]: resistant to hydrolysis; also recorded: stability in the presence of DcpS enzyme
IC50 (hDcpS enzyme): 5670 ± 1010 nM

COC1C(O)[C@@H](COP(=O)(O)OP(=O)(O)OP(=O)([O-])SC[C@H]2O[C@@H](n3cnc4c(=O)[nH]c(N)nc43)C(O)C2O)O[C@H]1n1c[n+](C)c2c(O)nc(N)nc21 (stereo partly drawn) [compound 38]
DcpS susceptibility [1]: hydrolyzable
hydrolysis by hDcpS [1]: hydrolyzed
IC50 (hDcpS enzyme): 72000 ± 17000 nM
